{"source": "patent US8124121B2", "about": "“Flavors, flavor modifiers, tastants, taste enhancers, umami or sweet tastants, and/or enhancers and use thereof” (Senomyx, Inc., priority 2003, dated 2012)", "key": {"un-induced I-17 cells": {"test_system": "un-induced I-17 cells", "assay": "FLIPR assay on un-induced I-17 cells (receptor dependency control)", "type": "cell-based", "conditions": "I-17 cells not induced with mifepristone; compounds presented at 10 μM", "procedure": "In order to determine the dependency of hT1R1/hT1R3 for the cell response to different stimuli, selected compounds were subjected to a similar analysis on I-17 cells that had not been induced for receptor expression with mifepristone (designated as un-induced I-17 cells). […] Compounds were presented to un-induced umami cells at […]—or three times the maximum stimulation used in the dose-response analysis."}, "[1]": {"test_system": "sweet taste, human panelists", "assay": "Sweet flavor and sweet flavor enhancement measurement using human panelists", "type": "in vivo", "procedure": "Overview: Various concentrations of the experimental compound (normally aqueous solutions containing 1, 3, 10, and 30 uM concentrations of the experimental compound; and optionally 50 uM and/or 100 uM concentrations) are individually tasted by trained human subjects and rated for intensity of several taste attributes. The experimental compound may also be tasted when dissolved in a “key tastant” solution.\nProcedure: An appropriate quantity of the experimental compound is dissolved in water typically also containing 0.1% ethanol, which is utilized to aid initial dispersion of the compound in the aqeuous stock solution. When appropriate, the experimental compound may also be dissolved in aqueous solutions of a “key tastant” (for example, 4% sucrose, 6% sucrose, 6% fructose/glucose, or 7% fructose/glucose, at pH 7.1 or 2.8).\nFive human Subjects are used for preliminary taste tests. […] Subjects refrain from eating or drinking (except water) for at least 1 hour prior to the test. Subjects eat a cracker and rinse with water four times to clean the mouth before taste tests.\nThe aqueous solutions are dispensed in 10 ml volumes into 1 oz. sample cups and served to the Subjects at room temperature. Samples of the experimental compound dissolved in an appropriate key tastant (e.g., 4% sucrose, 6% fructose, or 6% fructose/glucose, typically at pH 7.1) at various concentrations of the experimental compound may also be served to the Subjects. Subjects also receive a reference sample of the key tastant (e.g., sucrose, fructose, or fructose/glucose, typically at pH 7.1) at different concentrations for comparison.\nSubjects taste the solutions, starting with the lowest concentration, and rate intensity of the following attributes on the Labeled Magnitude Scale (LMS) for sweetness, saltiness, sourness, bitterness, savory (umami), and other (off-taste). Subjects rinse three times with water between tastings. If a particular concentration elicits an undesirable characteristic or off-taste, subsequent tastings of higher concentrations are eliminated. After a break, Subjects taste a solution of the key tastant (e.g., 4% sucrose, 6% fructose, or 6% fructose/glucose, typically at pH 7.1) without the experimental compound. Then solutions of the key tastant plus experimental compound are tasted in increasing order of concentration. The key tastant solution can be retasted for comparison with key tastant+experimental compound solutions if necessary. Discussion among panelists is permitted.\nSubjects rate the difference in intensity of the test sample compared to the reference sample for the key attribute on a scale of −5 (much less sweet than the reference) to +5 (much more sweet than the reference). A score of 0 indicates the test sample is equally as sweet as the reference. […]"}, "[2]": {"test_system": "savory taste, human panelists", "assay": "Umami/savory flavor experiments using human panelists (trained panel, difference from reference)", "type": "in vivo", "conditions": "12 mM MSG + cpd vs reference 12 mM MSG + 100 μM IMP", "procedure": "General Panelist Selection: Basic screening of sensory taste testers: Potential panelists were tested for their abilities to rank and rate intensities of solutions representing the five basic tastes. Panelists ranked and rated intensity of five different concentrations of each of the five following compounds: sucrose (sweet), sodium chloride (salty), citric acid (sour), caffeine (bitter), and monosodium glutamate (savory). In order to be selected for participation in testing, panelists needed to correctly rank and rate samples for intensity, with a reasonable number of errors\nPreliminary Taste Tests: The panelists selected in the above procedure were deemed qualified for performing Preliminary Taste Testing procedures. The preliminary taste tests are used to evaluate new compounds for intensity of basic tastes and off-tastes. A small group of panelists (n=5) taste approximately 5 concentrations of the compound (range typically between 1-100 μM, in half-log cycles, e.g., 1, 3, 10, 30, and 100 μM) in water and in a solution of 12 mM MSG to evaluate enhancement. Panelists rate the five basic tastes (sweet, salty, sour, bitter, and savory) as well as off-tastes (such as chemical, metallic, sulfur) on a labeled magnitude scale. Samples are served in 10 mL portions at room temperature. The purpose of the test is to determine the highest concentration at which there is no objectionable off-taste, and determine if obvious savory taste or enhancement of savory taste exists at any of the concentrations tested.\nTrained Panelist Selection: A trained expert panel was used to further evaluate compounds that had been tested with the preliminary taste test.\nPanelists for the trained panel were selected from the larger group of qualifying taste panelists. Panelists were further trained on savory taste by ranking and rating experiments using MSG and IMP combinations. Panelists completed a series of ranking, rating, and difference from reference tests with savory solutions. In ranking and rating experiments, panelists evaluated easy MSG concentrations (0, 6, 18, 36 mM) and more difficult MSG concentrations (3, 6, 12, 18 mM MSG) in water.\nCompound testing with Trained Panel: Compounds tested by the trained panel were evaluated in difference from reference experiments. […] Test samples were solutions with varying amounts of MSG, IMP, and the compound.\nCompounds were tested against the reference in samples with and without 12 mM MSG. All samples were presented in 10 ml volumes at room temperature. Two sessions were completed for each compound tested to evaluate panel reproducibility."}, "HEK293-Gα15 cells": {"test_system": "HEK293-Gα15 cells", "assay": "FLIPR assay on HEK293-Gα15 cells not expressing the human sweet receptor (receptor dependency control)", "type": "cell-based", "excerpt": "In order to determine the dependency of hT1R2/hT1R3 for the cell response to different stimuli, selected compounds were subjected to a similar analysis on HEK293-Gα15 cells (not expressing the human sweet receptor)."}}, "data": [{"smiles": "N[C@@H](CCC(=O)O)C(=O)[O-].[Na+]", "note": "[monosodium glutamate]", "values": [{"measurement": "functional response in the FLIPR assay using un-induced umami cells", "setting": "un-induced I-17 cells", "value": "do not show any functional response"}]}, {"smiles": "Cc1c(F)c(F)c(C(=O)NC2CCCCC2C)c(F)c1F", "note": "(centres unmarked) [Example 162, 2,3,5,6-tetrafluoro-4-methyl-N-(2-methylcyclohexyl)benzamide]", "values": [{"measurement": "Perceived Equivalent Sweet Solution", "setting": "[1]; 10 uM compound + 6% fructose/glucose, pH 7.1", "value": "≥ 8", "unit": "% fructose/glucose"}, {"measurement": "Perceived Equivalent Sweet Solution", "setting": "[1]; 10 uM compound + 7% fructose/glucose, pH 2.8", "value": "≥ 9", "unit": "% fructose/glucose"}]}, {"smiles": "COc1cc(C)ccc1CNC(=O)C(=O)NCCc1ccc(C)cn1", "note": "[Example 157, N^1-(2-methoxy-4-methylbenzyl)-N^2-(2-(5-methylpyridin-2-yl)ethyl)oxalamide]", "values": [{"measurement": "Taste Data: concentration of cpd with 12 mM MSG that is as strong as 12 mM MSG + 100 μM IMP", "setting": "[2]", "value": "12 mM MSG + 0.3 μM cpd as strong as"}, {"measurement": "melting point", "value": "116 to 117", "unit": "°C"}]}, {"smiles": "Cc1cccc(C)c1C(=O)NC1CCCCC1C", "note": "(centres unmarked) [Example 168, 2,6-dimethyl-N-(2-methylcyclohexyl)benzamide]", "values": [{"measurement": "Perceived Equivalent Sweet Solution", "setting": "[1]; 30 uM compound + 6% fructose/glucose, pH 7.1", "value": "Equal to 8% fructose/ % fructose/glucose"}]}, {"smiles": "O=C(Nc1ccc2c(c1)OCO2)N1Cc2ccccc2C1", "note": "[Example 174, N-(3,4-methylenedioxyphenyl)isoindoline-2-carboxamide]", "values": [{"measurement": "Perceived Equivalent Sweet Solution", "setting": "[1]; 50 uM compound + 4% sucrose, pH not measured or controlled", "value": 6, "unit": "% sucrose"}]}, {"smiles": "O=C(CO)[C@@H](O)[C@H](O)[C@H](O)CO", "note": "[D-Fructose]", "values": [{"measurement": "functional response in the FLIPR assay using HEK293-Gα15 cells", "setting": "HEK293-Gα15 cells", "value": "do not show any functional response"}]}]}
